Measured values taken from patent publication US4217357A, “Inhibition of thromboxane synthetase with 3-(imidazol-1-ylalkyl)indoles” (Pfizer Inc., priority 1978, dated 1980).

Assays:
[1] = system: human blood platelet aggregation; conditions: variety of aggregating agents; cited from earlier work
rabbit = conditions: intravenous arachidonic acid, rabbits; cited from earlier work
cyclo-oxygenase enzyme = conditions: in words; cited from earlier work
stroke and heart attack = conditions: clinical evaluation; cited from earlier work
thromboxane synthetase = biological target: T1, thromboxane synthetase (Homo sapiens, UniProt P24557); experiment: Thromboxane A2 (TxA2) synthetase in vitro enzyme assay; type: biochemical; conditions: for IC50: indomethacin-pretreated human platelet microsomes, PGH2, 0° C., 2 min, 5 min pre-incubation, read-out: Concentration causing 50% inhibition of (1) thromboxane synthetase; for Ratio of (3) to (1): prostacyclin synthetase / thromboxane synthetase 50% inhibition concentrations
T1 construct: Indomethacin-pretreated human platelet microsomes; from tissue; host or cells: human platelet microsomes
T1 sequence (P24557 1-533): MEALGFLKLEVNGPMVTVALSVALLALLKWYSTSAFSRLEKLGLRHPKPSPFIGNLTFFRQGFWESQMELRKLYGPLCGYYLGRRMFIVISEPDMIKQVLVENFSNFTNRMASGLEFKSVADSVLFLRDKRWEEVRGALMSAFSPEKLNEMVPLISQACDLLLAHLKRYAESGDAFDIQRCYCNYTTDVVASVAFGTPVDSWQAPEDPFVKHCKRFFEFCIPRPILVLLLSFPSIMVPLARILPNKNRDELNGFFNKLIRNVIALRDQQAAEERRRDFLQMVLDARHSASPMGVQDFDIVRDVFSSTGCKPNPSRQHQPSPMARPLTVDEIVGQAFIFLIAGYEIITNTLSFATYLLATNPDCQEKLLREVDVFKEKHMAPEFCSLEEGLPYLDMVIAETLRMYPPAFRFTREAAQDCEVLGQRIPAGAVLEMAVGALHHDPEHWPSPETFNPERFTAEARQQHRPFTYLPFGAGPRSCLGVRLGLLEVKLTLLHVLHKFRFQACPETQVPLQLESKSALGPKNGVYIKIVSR
Experimental: Indomethacin-pretreated human platelet microsomes (Science, 1976, 193, 163) are incubated with PGH2 (produced as described in test No. 1) at 0° C. for a period of two minutes, and aliquots of the reaction mixture are then superfused over two rabbit aorta spirals which are separated by a delay coil (2 min.). The latter is required in order to allow for the selective decay of the more unstable thromboxane A2 (Proc. Nat. Acad. Sci., 1975, 72, 2994), thereby enabling separate measurement of the increased isometric tension due to the TxA2 formed and the PGH2 remaining to take place. The test compound is then pre-incubated with the enzyme for a period of five minutes, and its ability to inhibit the thromboxane synthetase enzyme is measured as its reduction of the TxA2 component of the isometric tension.

cyclo-oxygenase = biological target: T2, cyclo-oxygenase (Ovis aries, UniProt P05979); experiment: Cyclo-oxygenase in vitro enzyme assay; type: biochemical; conditions: ram seminal vesicle microsomes, arachidonic acid 100 μM, 22° C., 1 min; 5 min pre-incubation; read-out: Concentration causing 50% inhibition of (2) cyclo-oxygenase
T2 construct: Ram seminal vesicle microsomes; from tissue; host or cells: ram seminal vesicle microsomes
T2 sequence (P05979 25-600): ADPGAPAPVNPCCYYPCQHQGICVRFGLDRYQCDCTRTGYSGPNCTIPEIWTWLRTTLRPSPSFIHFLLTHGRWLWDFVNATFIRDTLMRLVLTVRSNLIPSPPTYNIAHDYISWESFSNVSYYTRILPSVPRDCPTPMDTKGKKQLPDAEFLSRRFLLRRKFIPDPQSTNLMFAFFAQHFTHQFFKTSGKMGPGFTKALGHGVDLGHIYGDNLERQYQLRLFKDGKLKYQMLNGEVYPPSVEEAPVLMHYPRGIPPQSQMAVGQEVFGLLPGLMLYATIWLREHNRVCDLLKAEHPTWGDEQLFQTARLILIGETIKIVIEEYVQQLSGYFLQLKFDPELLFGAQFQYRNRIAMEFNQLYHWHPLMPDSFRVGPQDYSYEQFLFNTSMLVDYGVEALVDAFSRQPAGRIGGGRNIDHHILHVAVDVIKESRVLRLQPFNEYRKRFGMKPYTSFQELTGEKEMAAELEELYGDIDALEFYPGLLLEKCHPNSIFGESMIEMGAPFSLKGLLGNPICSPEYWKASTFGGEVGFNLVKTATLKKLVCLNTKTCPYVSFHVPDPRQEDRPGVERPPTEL
Experimental: The effect of the compounds of the formula (I) on the thromboxane synthetase enzyme, and the prostacyclin synthetase and cyclo-oxygenase enzymes has been measured by the following in vitro enzyme assay tests:
Ram seminal vesicle microsomes (Biochemistry, 1971, 10, 2372) are incubated with arachidonic acid (100 μM) at 22° C. for a period of one minute so as to produce PGH2, and aliquots of this reaction mixture are then injected into a stream of Krebs-bicarbonate at 37° C. [containing a mixture of antagonists (Nature, […], 218, 1135) and indomethacin (Brit. J. Pharmacol., 1972, 45, 451)] which is superfusing a spirally-cut rabbit aorta strip (Nature, 1969, 223, 29). The ability of a compound to inhibit the enzyme is measured by comparing the increases in isometric tension produced by PGH2 in the absence of the test compound and again, following pre-incubation of the enzyme with the test compound for a period of five minutes.

prostacyclin synthetase [2] = biological target: T3, prostacyclin synthetase (Sus scrofa, UniProt A0A5G2QT35); experiment: Prostacyclin (PGI2) synthetase in vitro enzyme assay; type: biochemical; conditions: pig aorta microsomes, PGH2, 22° C., 30 seconds; 5 min pre-incubation; read-out: Concentration causing 50% inhibition of (3) prostacyclin synthetase
T3 construct: Pig aorta microsomes; from tissue; host or cells: pig aorta microsomes
T3 sequence (A0A5G2QT35 1-497): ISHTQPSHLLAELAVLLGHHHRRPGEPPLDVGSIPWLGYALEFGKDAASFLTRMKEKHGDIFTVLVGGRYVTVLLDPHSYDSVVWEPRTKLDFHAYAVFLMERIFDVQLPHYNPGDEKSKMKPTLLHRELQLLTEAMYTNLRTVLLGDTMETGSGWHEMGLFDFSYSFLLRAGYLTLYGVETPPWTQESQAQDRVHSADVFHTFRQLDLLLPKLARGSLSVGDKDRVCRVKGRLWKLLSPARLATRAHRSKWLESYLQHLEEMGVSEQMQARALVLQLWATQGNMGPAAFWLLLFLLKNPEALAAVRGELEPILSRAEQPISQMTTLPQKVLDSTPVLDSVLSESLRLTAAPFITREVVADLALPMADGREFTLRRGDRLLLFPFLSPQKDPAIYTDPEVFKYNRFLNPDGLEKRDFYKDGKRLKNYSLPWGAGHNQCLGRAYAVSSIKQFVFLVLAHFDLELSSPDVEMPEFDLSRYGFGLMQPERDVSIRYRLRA

prostacyclin synthetase [3] = biological target: T3, prostacyclin synthetase; conditions: pre-incubation of the enzyme with the selective PGI2 synthetase inhibitor; cited from earlier work
aggregation of platelets = conditions: abdominal aorta of rats in vivo; cited from earlier work

Compound | IC50 (thromboxane synthetase) [µM] | Ratio of (3) to (1) (thromboxane synthetase) | IC50 (cyclo-oxygenase) [µM] | IC50 (prostacyclin synthetase [2]) [µM] | other results
CC(=O)Oc1ccccc1C(=O)O [aspirin] |  |  |  |  | inhibitory activity in vitro against aggregating agents [1]: show inhibitory activity in vitro; protection from the lethal effect of arachidonic acid injection (rabbit): protect the rabbit from the lethal effect of the injection; effect on prostacyclin and thromboxane A2 levels (cyclo-oxygenase enzyme): reduce both the prostacyclin and thromboxane A2 levels; inhibition of the cyclo-oxygenase enzyme (cyclo-oxygenase enzyme): inhibit the cyclo-oxygenase enzyme; clinical results in prevention of stroke and heart attack (stroke and heart attack): some encouraging results
COc1ccc2[nH]c(C)c(Cn3ccnc3)c2c1 [Example V, 3-(imidazol-1-ylmethyl)-5-methoxy-2-methylindole] | 0.062 | 65 | > 100 | 4 | 
Clc1ccccc1-c1[nH]c2ccccc2c1Cn1ccnc1 [Example XX, 2-(o-chlorophenyl)-3-(imidazol-1-ylmethyl)indole] | 0.003 | 13,000 | > 100 | 40 | 
COc1ccc2[nH]cc(Cn3ccnc3)c2c1 [IV, 3-(imidazol-1-ylmethyl)-5-methoxyindole] | 0.2 | 500 | > 100 | 100 | 
Cc1ccc(-c2[nH]c3ccccc3c2Cn2ccnc2)cc1 [XVII, 3-(imidazol-1-ylmethyl)-2-(p-tolyl)indole] | 0.00025 | 8,000 | > 100 | 2 | 
Cc1[nH]c2ccccc2c1Cn1ccnc1 [II, 3-(imidazol-1-ylmethyl)-2-methylindole] | 0.012 | 2,500 | > 100 | 30 | 
Oc1ccc(-c2[nH]c3ccccc3c2Cn2ccnc2)cc1 [L, 2-(p-hydroxyphenyl)-3-(imidazol-1-ylmethyl)indole] | 0.0066 | 450 | > 100 | 3 | 
c1ccc2c(Cn3ccnc3)c(C3CC3)[nH]c2c1 [XIII, 2-cyclopropyl-3-(imidazol-1-ylmethyl)indole] | 0.0001 | 8,400 | > 100 | 0.84 | 
c1ccc2c(Cn3ccnc3)c(C3CCCCC3)[nH]c2c1 [XII, 2-cyclohexyl-3-(imidazol-1-ylmethyl)indole] | 0.0003 | 70,000 | > 100 | 21 | 
c1ccc2c(Cn3ccnc3)c[nH]c2c1 [*, 3-(imidazol-1-ylmethyl)-indole] | 0.03 | 22,000 | > 1000 | 650 | 
O=C(c1ccccc1)n1cc(Cn2ccnc2)c2ccccc21 [Example XL, 1-benzoyl-3-(imidazol-1-ylmethyl)indole] | 0.002 | 850 | > 100 | 1.7 | 
Cc1cccc2c(Cn3ccnc3)c[nH]c12 [Example X, 3-(imidazol-1-ylmethyl)-7-methylindole] | 0.0084 | > 12,000 | > 100 | > 100 | 
CC(C)c1[nH]c2ccccc2c1Cn1ccnc1 [Example I, 3-(imidazol-1-ylmethyl)-2-isopropylindole] | 0.017 | > 6,000 | > 100 | > 100 | 
CCCCCC(/C=C/C=C\C/C=C\C/C=C\CCCC(=O)O)OO (centres unmarked) [15-hydroperoxy-arachidonic acid] |  |  |  |  | prevention of the decrease in PGH2-induced tension (prostacyclin synthetase [3]): prevented completely
O=C1C(CC[S+]([O-])c2ccccc2)C(=O)N(c2ccccc2)N1c1ccccc1 (centres unmarked) [sulphinpyrazone] |  |  |  |  | inhibitory activity in vitro against aggregating agents [1]: show inhibitory activity in vitro; protection from the lethal effect of arachidonic acid injection (rabbit): protect the rabbit from the lethal effect of the injection; prevention of aggregation of platelets in extra corporeal loop (aggregation of platelets): prevent the aggregation of platelets
Brc1ccc2[nH]cc(Cn3ccnc3)c2c1 [IX, 5-bromo-3-(imidazol-1-ylmethyl)indole] | 0.1 | 170 | > 100 | 17 | 
Cl.c1ccc(Cn2cc(Cn3ccnc3)c3ccccc32)cc1 [Example XXVI, 1-benzyl-3-(imidazol-1-ylmethyl)indole hydrochloride] | 0.065 | 15 | > 100 | 1 | 
